{
  "source": "patent EP0545805A1",
  "about": "“Use of D-fenfluramine and fenfluramine derivatives in the treatment of hypertension in insulin-resistant patients” (ADIR ET COMPAGNIE, priority 1991, dated 1993)",
  "key": {"[1]": {"details": "from cited literature (Storlien et al., Brindley et al., Carr et al., Duhault et al., Pestell et al.); cited from earlier work"}, "rat âgé": {"tested_on": "rat âgé", "test": "Chronic treatment of the aged rat (insulin resistance, hyperinsulinaemia, raised blood pressure): blood pressure", "format": "in vivo", "method": "2- Etude du traitement chronique du rat âgé\nAu cours du vieillissement, une insulino-résistance apparaît, accompagnée d'une hyperinsulinémie et d'une élévation de la pression artérielle (cf tableau 1 ci-après).\nLe traitement par la d-fenfluramine à la dose de 2,5 mg/kg 2 fois par jour pendant 3 semaines, diminue la pression artérielle du rat âgé de 12.10² Pa sans modifier celle du rat jeune."}, "réactivité vasculaire": {"tested_on": "réactivité vasculaire", "test": "Vascular reactivity after chronic treatment of the aged rat: maximum contraction to serotonin and ADP", "format": "in vivo", "details": "12-month rats treated with d-fenfluramine", "excerpt": "Cet effet est relié à une normalisation de la réactivité vasculaire, en particulier à la sérotonine et à l'ADP (cf tableau 2 ci-après)."}},
  "data": [
    {"compound": "CCNC(C)Cc1cccc(C(F)(F)F)c1", "note": "(racemic) [dl fenfluramine]", "values": [
      {"measurement": "insulino-résistance et hyperinsulinémie basale", "setting": "[1]", "result": "capables de réduire l'insulino-résistance et l'hyperinsulinémie basale"}
    ]},
    {"compound": "CC(Cc1cccc(C(F)(F)F)c1)NCCOC(=O)c1ccccc1", "note": "(centres unmarked) [benfluorex]", "values": [
      {"measurement": "Blood pressure and vascular reactivity of the aged rat (results compared with d-fenfluramine)", "setting": "rat âgé; 50 mg/kg, 5 times per day", "result": "résultats analogues"}
    ]},
    {"compound": "CCN[C@@H](C)Cc1cccc(C(F)(F)F)c1", "note": "[d-fenfluramine]", "values": [
      {"measurement": "Maximum de contraction Sérotonine", "setting": "réactivité vasculaire; expressed relative to KCl = 100 % contraction", "result": 145, "unit": "%"},
      {"measurement": "Maximum de contraction ADP", "setting": "réactivité vasculaire; expressed relative to phenylephrine = 100 % contraction", "result": 66, "unit": "%"},
      {"measurement": "pression artérielle du rat jeune", "setting": "rat âgé; young rat, 2,5 mg/kg twice daily for 3 weeks", "result": "sans modifier"}
    ]}
  ]
}
